System: LPS-induced TNF-α production from human PBMC
Experiment: LPS-induced TNF-α production from human PBMC
Type: cell-based
Settings: LPS 100 ng/ml, 18-20 hours
Description: Lipopolysaccharide (LPS) is an endotoxin produced by gram-negative bacteria such as E. coli which induces production of many pro-inflammatory cytokines, including TNF-α. In peripheral blood mononuclear cells (PBMC), the TNF-α produced in response to LPS is derived from monocytes, which comprise approximately 5-20% of the total PBMC. Compounds were tested for the ability to inhibit LPS-induced TNF-α production from human PBMC as previously described (Muller et al., 1996, J. Med. Chem., 39:3238). PBMC from normal donors were obtained by Ficoll Hypaque (Pharmacia, Piscataway, N.J., USA) density centrifugation. Cells were cultured in RPMI (Life Technologies, Grand Island, N.Y., USA) supplemented with 10% AB±human serum (Gemini Bio-products, Woodland, Calif., USA), 2 mM L-glutamine, 100 U/ml penicillin, and 100 μg/ml streptomycin (Life Technologies).
PBMC (2×10^5 cells) were plated in 96-well flat-bottom Costar tissue culture plates (Corning, N.Y., USA) in triplicate. Cells were stimulated with LPS (Sigma, St. Louis, Mo., USA) at 100 ng/ml in the absence or presence of compounds. Compounds (Celgene Corp., Warren, N.J., USA) were dissolved in DMSO (Sigma) and further dilutions were done in culture medium immediately before use. The final DMSO concentration in all samples was 0.25%. Compounds were added to cells one hour before LPS stimulation. […]

## CCOc1cc(C(CS(C)(=O)=O)N2C(=O)c3cccc(NC(C)=O)c3C2=O)ccc1OC (single isomer, unassigned; (+)) [Compound A, (+)-2-[1-(3-ethoxy-4-methoxyphenyl)-2-methylsulfonylethyl]-4-acetylaminoisoindoline-1,3-dione]
  IC50: 77 nM

Reference: US8629173B2, “Solid forms comprising (+)-2-[1-(3-ethoxy-4-methoxyphenyl)-2-methylsulfonylethyl]-4-acetylaminoisoindoline-1,3-dione, compositions thereof, and uses thereof” (Celgene Corporation, priority 2002, dated 2014)
